Test results as given in patent US20140336136A1, “Carboxylated Stilbenes For Activating AMPK And Sirtuins” (Rahn AG, priority 2013, published 2014).
Marks after values point to notes of the source that are not given here. Blank lines part the entries; values can stand above or below the compound they belong to.

Assays:
[1] = test system: 5′-AMP-activated protein kinase (AMPK); assay: Western blot analysis of AMPK phosphorylation in NHEK; format: cell-based, human; settings: for AMPK phosphorylation [% Control] / Ratio P-AMPK/GAPDH / P-AMPK: 1000 μM; for P-AMPK: 48 h
Sirt2 = biological target: T1, Sirt2 (Homo sapiens, UniProt Q8IXJ6); assay: SIRT2 Fluorimetric Drug Discovery Kit, Sirt2 activation; format: biochemical; settings: Example 2, Table 6
T1 construct: purchased BioMol, Hamburg, Germany
T1 sequence (Q8IXJ6 1-389): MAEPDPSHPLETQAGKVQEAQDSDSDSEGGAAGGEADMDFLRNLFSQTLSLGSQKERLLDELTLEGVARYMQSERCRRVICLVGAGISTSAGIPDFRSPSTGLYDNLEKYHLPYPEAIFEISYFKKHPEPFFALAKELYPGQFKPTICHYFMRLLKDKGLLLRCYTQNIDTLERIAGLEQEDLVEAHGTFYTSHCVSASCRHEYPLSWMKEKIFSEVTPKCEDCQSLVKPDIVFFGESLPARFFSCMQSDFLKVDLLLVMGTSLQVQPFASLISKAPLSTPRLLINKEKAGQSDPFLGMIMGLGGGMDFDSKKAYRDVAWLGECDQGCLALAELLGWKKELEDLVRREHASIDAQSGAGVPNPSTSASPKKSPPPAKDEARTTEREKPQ

human sirtuin-1 (Sirt1) = biological target: T2, human sirtuin-1 (Sirt1) (Homo sapiens, UniProt Q96EB6); assay: SIRT1 Fluorimetric Drug Discovery Kit, Sirt1 activation; format: biochemical; settings: for Fold increase in sirtl activity versus control: 10 μM, control = trans-resveratrol
T2 construct: purchased BioMol, Hamburg, Germany
T2 sequence (Q96EB6 1-747): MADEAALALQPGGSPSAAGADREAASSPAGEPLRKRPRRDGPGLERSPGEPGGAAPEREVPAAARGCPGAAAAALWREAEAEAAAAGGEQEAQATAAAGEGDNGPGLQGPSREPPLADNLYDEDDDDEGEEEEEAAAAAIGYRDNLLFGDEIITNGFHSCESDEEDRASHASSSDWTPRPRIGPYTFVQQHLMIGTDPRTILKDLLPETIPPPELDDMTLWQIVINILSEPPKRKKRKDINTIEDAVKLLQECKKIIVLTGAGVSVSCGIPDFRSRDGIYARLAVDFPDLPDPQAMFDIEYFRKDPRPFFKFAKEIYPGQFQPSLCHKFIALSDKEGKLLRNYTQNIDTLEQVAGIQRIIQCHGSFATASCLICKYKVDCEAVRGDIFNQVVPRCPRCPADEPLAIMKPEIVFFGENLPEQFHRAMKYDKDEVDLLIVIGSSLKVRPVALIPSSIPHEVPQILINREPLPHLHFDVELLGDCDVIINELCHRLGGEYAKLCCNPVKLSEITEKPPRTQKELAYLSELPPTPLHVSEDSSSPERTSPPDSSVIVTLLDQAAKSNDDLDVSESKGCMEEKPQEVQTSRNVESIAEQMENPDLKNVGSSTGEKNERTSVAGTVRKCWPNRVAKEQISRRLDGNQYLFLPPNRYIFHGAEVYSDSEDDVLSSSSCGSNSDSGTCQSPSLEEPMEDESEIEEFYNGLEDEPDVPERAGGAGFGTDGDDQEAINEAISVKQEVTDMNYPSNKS
Protocol: Compounds were tested for Sirt1 activation using the SIRT1 Fluorimetric Drug Discovery Kit (BioMol, Hamburg, Germany), Testing was carried out in dubplicate following the manufacturer's instructions. Assay medium: 50 mM Tris-HCl pH 8.0, 137 mM NaCl, 2.7 mM KCl, 1 mM MgCl2, 1 mg/ml bovine serum albumin (BSA). Stock solutions of the test compounds (10 mM in DMSO) were used, yielding a final concentration of 10 μM in the assay plate. Readout was obtained by measuring the fluorescence in a microtiter plate reader (excitation: 380 nm; detection: 440 nm).
For this purpose, the test item stock solutions were diluted to yield concentrations of 0.3, 1, 3, 10 and 30 μM, respectively, in the assay, which was performed as described above. The compound of structure (I-1) was selected for this experiment.
Quantification using the GraphPad Prism 5.0 software (GraphPad Software, Inc., LaJolla, Calif., USA) led to the following EC300 values (i.e. the concentration that gave 3-times the basal response of the enzyme=activation by a factor of three):
The selectivity of the agonistic effect of the compound of formula (I-1) on different sirtuin isoforms was investigated. For this purpose, in vitro testing was performed as described in Example 1 using the respective SIRT1 Fluorimetric Drug Discovery Kit, SIRT2 Fluorimetric Drug Discovery Kit, and SIRT3 Fluorimetric Drug Discovery Kit (each from BioMol, Hamburg, Germany). […] The dose-response effect is slightly lesser on Sirt3.

[2] = test system: normal human epidermal keratinocytes (NHEK); assay: MTT reduction cytotoxicity assay in NHEK; format: cell-based; settings: for viability: NHEK
Protocol: Culture conditions: 37° C., 5% CO2. Culture medium: Keratinocyte-SFM (serum-free medium) containing human recombinant epidermal growth factor (EGF 1-53) 0.25 ng/mL and bovine pituitary extract 25 μg/mL (Gibco; Cat. No. 17005-075), supplemented with gentamycin 25 μg/mL. Assay medium: Keratinocyte-SFM (Gibco; Cat. No. 10744-019), supplemented with gentamycin 25 μg/mL.
NHEK were seeded in 24-well plates (30.000 cells/well) and cultured in culture medium for 24 h and then in assay medium for another 24 h. Medium was then removed and replaced by assay medium containing the respective test compound or reference in defined concentrations.
Cytotoxicity was determined using the 3-(4,5-dimethylthiazol-2-yl)-2,5-diphenyltetrazoliumbromid (MTT) reduction assay (sse T. Mosmann (1983) J. Immunol. Methods. 65, pp. 55-63).

Sirt3 = biological target: T3, Sirt3 (Homo sapiens, UniProt Q9NTG7); assay: SIRT3 Fluorimetric Drug Discovery Kit, Sirt3 activation; format: biochemical; settings: Example 2, Table 6
T3 construct: purchased BioMol, Hamburg, Germany
T3 sequence (Q9NTG7 1-399): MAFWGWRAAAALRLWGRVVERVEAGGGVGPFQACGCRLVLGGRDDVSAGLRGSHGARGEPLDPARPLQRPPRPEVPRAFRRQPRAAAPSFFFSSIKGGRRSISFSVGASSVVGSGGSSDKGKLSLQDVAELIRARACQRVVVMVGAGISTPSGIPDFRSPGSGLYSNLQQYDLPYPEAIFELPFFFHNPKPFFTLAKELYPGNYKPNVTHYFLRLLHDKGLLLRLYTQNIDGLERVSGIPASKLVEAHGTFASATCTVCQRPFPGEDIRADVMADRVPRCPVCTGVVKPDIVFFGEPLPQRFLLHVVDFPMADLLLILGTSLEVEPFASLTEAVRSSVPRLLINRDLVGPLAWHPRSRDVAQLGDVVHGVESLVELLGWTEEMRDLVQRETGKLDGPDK

[3] = test system: normal human dermal fibroblasts (NHDF); assay: Resazurin based cytotoxicity assay in NHDF; format: cell-based; settings: 24 h and 48 h; 0.03 μM to 200 μM
Protocol: The effect of compound (I-1) on mitochondria biosynthesis was investigated in normal human dermal fibroblasts (NHDF). NHDF were obtained from PromoCell (Lot No. 006151; donor; from eyelid skin) and cultivated in Fibroblast Growth Medium (PromoCell; Cat. No. C-023020) supplemented with Supplement Mix (PromoCell; Cat. No. C-039215) at 37° C./5% CO2. NHDF were seeded in flat-bottom 96-well plates (5000 cells/well) and incubated in said medium for 24 h or 48 h, respectively, with the compounds present in concentrations ranging from 0.03 μM to 200 μM. Mitochondria content was analyzed using the Mito-ID® Green Detection Kit for fluorescence microscopy (Enzo Life Sciences; Cat. No. ENZ-51055-K500). Fluorometric analysis was done using a Spectramax plate reader (Molecular Devices) and following the manufacturer's protocol. Cytotoxicity was determined in parallel by fluorometric readout using the Resazurin Based In Vitro Toxicology Assay Kit (Sigma Aldrich, Cat. No. TOX-8), and following the manufacturer's protocol.

[4] = Example 1, concentration that gave 3-times the basal response of the enzyme

SMILES: NC(=O)c1ncn([C@@H]2O[C@H](CO)[C@@H](O)[C@H]2O)c1N [AICAR, 5-Amino-1-βD-ribofuranosyl-imidazole-4-carboxamide]
AMPK phosphorylation [% Control] ([1]; Experiment 1, Membrane 1): 482 % Control
Ratio P-AMPK/GAPDH ([1]; Experiment 1, Membrane 1): 2.05
P-AMPK ([1]; Experiment 1, Membrane 1): 1060 AU/mm^2
AMPK phosphorylation [% Control] ([1]; Experiment 2): 506 % Control
Ratio P-AMPK/GAPDH ([1]; Experiment 2): 0.572
P-AMPK ([1]; Experiment 2): 1377449 AU/mm^2

EC300 (Sirt2): >30 µM
EC300 (human sirtuin-1 (Sirt1); [4]): > 30 µM
EC300 (human sirtuin-1 (Sirt1); Example 2, Table 6, Sirt1): >30 µM
SMILES: Oc1ccc(/C=C/c2cc(O)cc(O)c2)cc1 [trans-resveratrol]
viability ([2]; 100 μM): 2%
viability ([2]; 300 μM): 43%

Fold increase in sirtl activity versus control (human sirtuin-1 (Sirt1)): 2.0
SMILES: COc1cc(/C=C/c2cccc(O)c2C(=O)O)cc(OC)c1O [(I-4)]

Fold increase in sirtl activity versus control (human sirtuin-1 (Sirt1)): 4.8
SMILES: O=C(O)c1c(O)cccc1/C=C/c1ccc(O)cc1 [(I-2)]

Fold increase in sirtl activity versus control (human sirtuin-1 (Sirt1)): 1.1
SMILES: COC(=O)c1c(/C=C/c2ccc(OC)cc2)cccc1OC [(I-3)]

EC300 (Sirt3): >30* μM
EC300 (Sirt2): 4.9 µM
Fold increase in sirtl activity versus control (human sirtuin-1 (Sirt1)): 23.9
EC300 (human sirtuin-1 (Sirt1); [4]): 2.0 µM
EC300 (human sirtuin-1 (Sirt1); Example 2, Table 6, Sirt1): 12.9 µM
SMILES: CCOC(=O)c1c(O)cccc1/C=C/c1ccc(OCC)cc1 [(I-1)]
AMPK phosphorylation ([1]; NHEK, 30 μM): significantly enhanced
cytotoxicity against NHEK [2]: no cytotoxicity
cytotoxicity / cell viability in NHDF [3]: no cytotoxicity or loss of cell viability

Fold increase in sirtl activity versus control (human sirtuin-1 (Sirt1)): 2.7
SMILES: O=C(O)c1c(O)cccc1/C=C/c1ccc(OC2OC(CO)C(O)C(O)C2O)cc1 (centres unmarked) [(I-5)]
